The values that follow come from ChEMBL document CHEMBL4732079, “Design, synthesis and antitumor evaluation of new 1,8-naphthalimide derivatives targeting nuclear DNA” (Eur J Med Chem, 2021).

The subject of one assay is SMMC-7721. The assay is described as follows: Antiproliferative activity against human SMMC-7721 cells by MTT assay. Type of assay: functional, cell-based. (In general: Formazan colour is commonly taken as a measure of viable cells.)
The next assay relates to T-24. Nature of the assay: Antiproliferative activity against human T-24 cells by MTT assay. In kind it is functional, cell-based.
The subject of another assay is SK-OV-3. The assay is described as follows: Antiproliferative activity against human SK-OV-3 cells by MTT assay. Type of assay: functional, cell-based.
Assay [1] has as its system MGC-803. Nature of the assay: Antiproliferative activity against human MGC-803 cells by MTT assay. Type of assay: functional, cell-based.
The next assay relates to A549. The assay is described as follows: cells. The note with it: Homo sapiens.
Assay [2] relates to MGC-803. The assay is described as follows: Antitumor activity against human MGC-803 cells xenografted in BALB/c nude mice assessed as tumor increment rate at 5 mg/kg, ip measured after 21 days relative to control. In kind it is functional. As to conditions: time 21 day. For orientation: A xenograft is tissue or cells of one species grown in another, often human tumour cells in immunodeficient mice.

In assay [3] the test system is MGC-803. Nature of the assay: Antitumor activity against human MGC-803 cells xenografted in BALB/c nude mice assessed as tumor inhibitory rate at 5 mg/kg, ip measured after 21 days relative to control. Type of assay: functional. The note with it: Mus musculus, MGC-803, ip, 504 h, time 21 day.

pIC50: −log10 of the molar value.

Description for A549: Antiproliferative activity against human A549 cells by MTT assay

In the case of `O=C1c2cccc3c(N4CCN(C(=S)SCc5ccccc5)CC4)c([N+](=O)[O-])cc(c23)C(=O)N1Cc1ccccc1`, the pIC50 in the assay on SMMC-7721 is 4.87; in the assay on T-24 it was 4.88; in the assay on SK-OV-3, 4.47; in the assay with MGC-803 [1] it was 4.66; with A549, under 4.30.
For the compound `O=C(c1ccccc1)N1CCN(c2c([N+](=O)[O-])cc3c4c(cccc24)C(=O)N(Cc2ccc(Cl)cc2)C3=O)CC1`, the pIC50 in the assay with SMMC-7721 was 4.89; in the assay on T-24, 4.68; with SK-OV-3 it was 4.80; in the assay on MGC-803 [1] it was 4.70; in the assay on A549, 4.32.
For `CN(C)CCN1C(=O)c2cccc3c(N4CCN(C(=O)OC(C)(C)C)CC4)c([N+](=O)[O-])cc(c23)C1=O`, in that order: 5.98, 6.08, 6.19, 5.88 and 5.97.
As for `O=C(c1ccccc1)N1CCN(c2c([N+](=O)[O-])cc3c4c(cccc24)C(=O)N(CCc2ccc(O)c(O)c2)C3=O)CC1`, the pIC50 was 4.71 with SMMC-7721; 4.84 in the assay on T-24; 4.70 in the assay on SK-OV-3; 5.03 with MGC-803 [1]; 4.65 with A549.
In the case of `Cc1ccc(S(=O)(=O)N2CCN(c3c([N+](=O)[O-])cc4c5c(cccc35)C(=O)N(CCO)C4=O)CC2)cc1`, the pIC50 in the assay with SMMC-7721 is 4.80; in the assay on T-24, 5.17; with SK-OV-3, 4.91; in the assay on MGC-803 [1], 4.80; in the assay on A549, 4.68.
As for `Cc1ccc(S(=O)(=O)N2CCN(c3c([N+](=O)[O-])cc4c5c(cccc35)C(=O)N(Cc3ccccc3)C4=O)CC2)cc1`, the pIC50 in the assay with SMMC-7721 is 4.83; in the assay on T-24, 4.90; in the assay with SK-OV-3, 4.42; in the assay with MGC-803 [1], 4.97; in the assay with A549, 4.37.
As to `O=C1c2cccc3c(N4CCN(C(=S)SCc5ccccc5)CC4)c([N+](=O)[O-])cc(c23)C(=O)N1Cc1ccc(Cl)cc1`, the pIC50 was 5.05 in the assay on SMMC-7721; 4.99 with T-24; 4.53 with SK-OV-3; 4.68 in the assay with MGC-803 [1]; 4.40 in the assay with A549.
Turning to `Cc1ccc(S(=O)(=O)N2CCN(c3c([N+](=O)[O-])cc4c5c(cccc35)C(=O)N(CCc3ccc5c(c3)OCO5)C4=O)CC2)cc1`, the pIC50 was 4.78 with SMMC-7721; 5.04 in the assay with T-24; 4.54 with SK-OV-3; 4.89 in the assay with MGC-803 [1]; 4.38 with A549.
On to `O=C1c2cccc3c(N4CCN(C(=S)SCc5ccccc5)CC4)c([N+](=O)[O-])cc(c23)C(=O)N1CCc1ccc(O)c(O)c1`, for which the negative-log IC50 (pIC50) is 4.65 with SMMC-7721; 4.97 in the assay on T-24; 4.58 in the assay on SK-OV-3; 4.59 in the assay with MGC-803 [1]; 4.76 in the assay on A549.
For `CNCCCN1C(=O)c2cccc3c(N4CCN(C(=O)OC(C)(C)C)CC4)c([N+](=O)[O-])cc(c23)C1=O`, the pIC50 was 5.23 in the assay on SMMC-7721; 5.52 with T-24; 5.06 in the assay with SK-OV-3; 5.19 in the assay on MGC-803 [1]; 5.12 in the assay with A549.
For `CC(C)(C)OC(=O)N1CCN(c2c([N+](=O)[O-])cc3c4c(cccc24)C(=O)N(CCc2ccc4c(c2)OCO4)C3=O)CC1` the same measures were 4.84, 5.01, 5.13, 4.60 and 4.78.
For the compound `CCCCN1C(=O)c2cccc3c(N4CCN(S(=O)(=O)c5ccc(C)cc5)CC4)c([N+](=O)[O-])cc(c23)C1=O`, the pIC50 is 4.90 with SMMC-7721; 4.96 in the assay with T-24; 4.47 with SK-OV-3; 4.67 with MGC-803 [1]; 4.43 in the assay with A549.
For `Cc1ccc(S(=O)(=O)N2CCN(c3c([N+](=O)[O-])cc4c5c(cccc35)C(=O)N(Nc3ccccc3)C4=O)CC2)cc1` the same measures were 4.84, 4.97, 4.63, 4.79 and 4.42.
For `Cc1ccc(S(=O)(=O)N2CCN(c3c([N+](=O)[O-])cc4c5c(cccc35)C(=O)N(Cc3ccco3)C4=O)CC2)cc1` the same measures were 4.83, 5.07, 4.53, 4.52 and 4.33.
With `O=c1[nH]cc(F)c(=O)[nH]1` [FLUOROURACIL], the negative-log IC50 (pIC50) with SMMC-7721 is 4.81; with T-24, 4.40; in the assay with MGC-803 [1] it was 4.46.
Take `CNCCCN1C(=O)c2cccc3c(N4CCN(C(=O)c5ccccc5)CC4)c([N+](=O)[O-])cc(c23)C1=O`: the negative-log IC50 (pIC50) is 5.33 in the assay with SMMC-7721; 5.33 in the assay on T-24; 5.39 in the assay with SK-OV-3; 5.09 in the assay on MGC-803 [1]; 5.18 in the assay with A549.
Take `CC(C)(C)OC(=O)N1CCN(c2c([N+](=O)[O-])cc3c4c(cccc24)C(=O)N(CCc2ccc(O)c(O)c2)C3=O)CC1`: the pIC50 in the assay on SMMC-7721 is 4.56; with T-24, 4.96; in the assay on SK-OV-3, 5.05; in the assay with MGC-803 [1], 5.06; in the assay on A549, 4.38.
For `CN(C)CCN1C(=O)c2cccc3c(N4CCN(C(=S)SCc5ccccc5)CC4)c([N+](=O)[O-])cc(c23)C1=O`, in that order: 5.50, 5.69, 5.62, 5.22 and 5.70.
For `O=C(c1ccccc1)N1CCN(c2c([N+](=O)[O-])cc3c4c(cccc24)C(=O)N(CCO)C3=O)CC1` the same measures were 4.92, 5.00, 4.77, 4.89 and 4.50.
For the compound `Cc1ccc(S(=O)(=O)N2CCN(c3c([N+](=O)[O-])cc4c5c(cccc35)C(=O)N(CCc3ccc(O)c(O)c3)C4=O)CC2)cc1`, the negative-log IC50 (pIC50) in the assay on SMMC-7721 is 4.91; in the assay with T-24, 4.94; in the assay with SK-OV-3, 4.69; in the assay on MGC-803 [1] it was 4.66; in the assay with A549, 4.61.
With `O=C1c2cccc3c(N4CCN(C(=S)SCc5ccccc5)CC4)c([N+](=O)[O-])cc(c23)C(=O)N1Nc1ccccc1`, the pIC50 with SMMC-7721 was 4.83; in the assay with T-24, 4.87; in the assay with SK-OV-3 it was under 4.30; in the assay with MGC-803 [1] it was 4.74; in the assay with A549 it was under 4.30.
For the compound `O=C1c2cccc3c(N4CCN(C(=S)SCc5ccccc5)CC4)c([N+](=O)[O-])cc(c23)C(=O)N1CCc1ccc2c(c1)OCO2`, the pIC50 in the assay with SMMC-7721 was 4.89; with T-24, 5.04; in the assay with SK-OV-3, 4.35; with MGC-803 [1], 4.68; in the assay on A549 it was 4.48.
Regarding `CN(C)CCN1C(=O)c2cccc3cc(N)cc(c23)C1=O` [AMONAFIDE], the negative-log IC50 (pIC50) is 5.16 in the assay on SMMC-7721; 5.30 in the assay with T-24; 5.20 in the assay with SK-OV-3; 5.04 with MGC-803 [1]; 5.10 in the assay with A549. In addition, in the assay with MGC-803 [2], the T/C was 34.4%. Also, the inhibition in vivo at 5 mg/kg in the assay on MGC-803 [3] amounted to 65.5%.
Consider `CN(C)CCN1C(=O)c2cccc3cc([N+](=O)[O-])cc(c23)C1=O` [MITONAFIDE], for which the negative logarithm of the IC50 (pIC50) was 5.49 with SMMC-7721; 5.95 in the assay on T-24; 5.86 in the assay on SK-OV-3; 5.17 in the assay on MGC-803 [1]; 7.92 with A549.
On to `COc1ccc(CN2C(=O)c3cccc4c(N5CCN(S(=O)(=O)c6ccc(C)cc6)CC5)c([N+](=O)[O-])cc(c34)C2=O)cc1`, for which the negative logarithm of the IC50 (pIC50) is 4.52 in the assay on SMMC-7721; 4.85 in the assay with T-24; 4.62 in the assay with SK-OV-3; 4.79 with MGC-803 [1]; 4.57 in the assay on A549.
Consider `COc1ccc(CN2C(=O)c3cccc4c(N5CCN(C(=S)SCc6ccccc6)CC5)c([N+](=O)[O-])cc(c34)C2=O)cc1`, for which the negative logarithm of the IC50 (pIC50) in the assay with SMMC-7721 was 4.75; in the assay on T-24, 4.97; with SK-OV-3, 4.57; in the assay on MGC-803 [1], 4.51; in the assay on A549, 4.41.
For `CC(C)(C)OC(=O)N1CCN(c2c([N+](=O)[O-])cc3c4c(cccc24)C(=O)N(Cc2ccc(Cl)cc2)C3=O)CC1` the same measures were 5.11, 5.02, 4.90, 4.79 and 4.39.
For `Cc1ccc(S(=O)(=O)N2CCN(c3c([N+](=O)[O-])cc4c5c(cccc35)C(=O)N(Cc3ccc(Cl)cc3)C4=O)CC2)cc1` the same measures were 4.75, 5.20, 4.52, 4.54 and under 4.30.
For `O=C1c2cccc3c(N4CCN(C(=S)SCc5ccccc5)CC4)c([N+](=O)[O-])cc(c23)C(=O)N1CCO`, in that order: 4.84, 4.88, 4.50, 4.81 and under 4.30.
In the case of `O=C1c2cccc3c(N4CCN(C(=S)SCc5ccccc5)CC4)c([N+](=O)[O-])cc(c23)C(=O)N1Cc1ccco1`, the negative-log IC50 (pIC50) with SMMC-7721 was 4.93; in the assay with T-24, 4.74; in the assay on SK-OV-3, 4.39; in the assay on MGC-803 [1], 4.67; with A549, 4.35.
For `CC(C)(C)OC(=O)N1CCN(c2c([N+](=O)[O-])cc3c4c(cccc24)C(=O)N(CCO)C3=O)CC1`, the negative-log IC50 (pIC50) in the assay with SMMC-7721 was 4.86; with T-24 it was 4.89; in the assay on SK-OV-3 it was 4.87; in the assay on MGC-803 [1] it was 4.56; with A549 it was 4.34.

As usually defined, the pIC50 is the negative decadic logarithm of the IC50, by convention in mol/L. Read a high pIC50 as a small IC50. One may read the T/C as the result in the treated group divided by that in the control group, in per cent. In general, inhibition in vivo refers to how much of the control response was suppressed.
